This is an account of results in patent US9745285B2, “Heteroaryl substituted pyrazoles” (BAYER PHARMA AKTIENGESELLSCHAFT, priority 2013, dated 2017).

The subject of assay [1] is HeLa human cervical cancer cell line. The experiment in a line: Proliferation assay (HeLa cell line, crystal violet). Format: cell-based. The settings on record: 96 h, HeLa cells, 4 days incubation, crystal violet staining, median value, read-out: Biological Assay 2: Proliferation assay (HeLa cell line) median IC50. The protocol: Cultivated tumor cells (cells were ordered from ATCC) were plated at a density of 3000 cells/well in a 96-well multititer plate in 200 μL of growth medium supplemented 10% fetal calf serum. After 24 hours, the cells of one plate (zero-point plate) were stained with crystal violet (see below), while the medium of the other plates was replaced by fresh culture medium (200 μL), to which the test substances were added in various concentrations (0 μM, as well as in the range of 0.001-10 μM; the final concentration of the solvent dimethyl sulfoxide was 0.5%). The cells were incubated for 4 days in the presence of test substances. Cell proliferation was determined by staining the cells with crystal violet: the cells were fixed by adding 20 μL/measuring point of an 11% glutaric aldehyde solution for 15 minutes at room temperature. After three washing cycles of the fixed cells with water, the plates were dried at room temperature. The cells were stained by adding 100 μL/measuring point of a 0.1% crystal violet solution (pH 3.0). […] Absorption was determined by photometry at a wavelength of 595 nm.
The change of cell number, in percent, was calculated by normalization of the measured values to the absorption values of the zero-point plate (=0%) and the absorption of the untreated (0 μm) cells (=100%). The IC50 values were determined by means of a 4 parameter fit.

Assay [2] has as its target T1, catalytic domain of human Bub1 (amino acids 704-1085) (Homo sapiens, UniProt O43683).
T1 construct: catalytic domain of human Bub1 (amino acids 704-1085); His6 (N); made in house; host or cells: Hi5 insect cells
Kind of assay: Bub1 kinase assay (TR-FRET). Format: biochemical. The settings on record: 10 μM ATP, 1 μM peptide substrate, median value, read-out: Biological Assay 1: Bub1 kinase assay median IC50. The text has this:
Bub1-inhibitory activities of compounds described in the present invention were quantified using a time-resolved fluorescence energy transfer (TR-FRET) kinase assay which measures phosphorylation of the synthetic peptide Biotin-Ahx-VLLPKKSFAEPG (C-terminus in amide form), purchased from e.g. Biosyntan (Berlin, Germany) by the (recombinant) catalytic domain of human Bub1 (amino acids 704-1085), expressed in Hi5 insect cells with an N-terminal His6-tag and purified by affinity—(Ni-NTA) and size exclusion chromatography.
In a typical assay 11 different concentrations of each compound (0.1 nM, 0.33 nM, 1.1 nM, 3.8 nM, 13 nM, 44 nM, 0.15 μM, 0.51 μM, 1.7 μM, 5.9 μM and 20 μM) were tested in duplicate within the same microtiter plate. To this end, 100-fold concentrated compound solutions (in DMSO) were previously prepared by serial dilution (1:3.4) of 2 mM stocks in a clear low volume 384-well source microtiter plate (Greiner Bio-One, Frickenhausen, Germany), from which 50 nL of compounds were transferred into a black low volume test microtiter plate from the same supplier. Subsequently, 2 μL of Bub1 (the final concentration of Bub1 was adjusted depending on the activity of the enzyme lot in order to be within the linear dynamic range of the assay: typically 200 ng/mL were used) in aqueous assay buffer [50 mM Tris/HCl pH 7.5, 10 mM magnesium chloride (MgCl2), 200 mM potassium chloride (KCl), 1.0 mM dithiothreitol (DTT), 0.1 mM sodium orthovanadate, 1% (v/v) glycerol, 0.01% (w/v) bovine serum albumine (BSA), 0.005% (v/v) Trition X-100 (Sigma), 1× Complete EDTA-free protease inhibitor mixture (Roche)] were added to the compounds in the test plate and the mixture was incubated for 15 min at 22° C. to allow pre-equilibration of the putative enzyme-inhibitor complexes before the start of the kinase reaction, which was initiated by the addition of 3 μL 1.67-fold concentrated solution (in assay buffer) of adenosine-triphosphate (ATP, 10 μM final concentration) and peptide substrate (1 μM final concentration). […] Subsequently, the amount of product was evaluated by measurement of the resonance energy transfer from the Eu-chelate-antibody complex recognizing the Phosphoserine residue to the streptavidin-XL665 bound to the biotin moiety of the peptide. To this end, the fluorescence emissions at 620 nm and 665 nm after excitation at 330-350 nm were measured in a TR-FRET plate reader, e.g. a Rubystar or Pherastar (both from BMG Labtechnologies, Offenburg, Germany) or a Viewlux (Perkin-Elmer) and the ratio of the emissions (665 nm/622 nm) was taken as indicator for the amount of phosphorylated substrate. […] IC50 values were calculated by fitting the normalized inhibition data to a 4-parameter logistic equation (Minimum, Maximum, IC50, Hill; Y=Max+(Min−Max)/(1+(X/IC50)Hill)).

T1 sequence (O43683 704-1085): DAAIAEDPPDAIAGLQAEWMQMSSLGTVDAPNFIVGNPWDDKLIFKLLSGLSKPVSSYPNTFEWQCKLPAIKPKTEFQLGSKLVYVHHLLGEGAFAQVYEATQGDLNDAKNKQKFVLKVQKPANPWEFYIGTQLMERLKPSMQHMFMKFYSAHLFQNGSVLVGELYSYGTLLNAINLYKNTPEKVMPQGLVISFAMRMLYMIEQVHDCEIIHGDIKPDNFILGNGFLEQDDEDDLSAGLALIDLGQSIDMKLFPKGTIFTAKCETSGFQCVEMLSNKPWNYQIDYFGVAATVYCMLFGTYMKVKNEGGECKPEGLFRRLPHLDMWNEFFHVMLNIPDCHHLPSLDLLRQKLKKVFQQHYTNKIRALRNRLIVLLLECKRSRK

Regarding `COc1cnc(-c2nn(Cc3c(C)noc3C)c(C3CC3)c2C)nc1Nc1ccncc1C(N)=O` [Example 2-2-1, 4-[(2-{5-cyclopropyl-1-[(3,5-dimethyl-1,2-oxazol-4-yl)methyl]-4-methyl-1H-pyrazol-3-yl}-5-methoxypyrimidin-4-yl)amino]nicotinamide], the IC50 is above 10 µM in assay [1] and 0.016 µM in assay [2].

Regarding `COc1cnc(-c2nn(Cc3c(Cl)cnn3C)c(C3CC3)c2C)nc1Nc1ccncc1` [Example 2-1-1, 2-{1-[(4-chloro-1-methyl-1H-pyrazol-5-yl)methyl]-5-cyclopropyl-4-methyl-1H-pyrazol-3-yl}-5-methoxy-N-(pyridin-4-yl)pyrimidin-4-amine], the IC50 in assay [2] amounted to 0.009 µM. Regarding `COc1cnc(-c2nn(Cc3nnc(C)o3)c(C3CC3)c2C)nc1Nc1ccncc1C(N)=O` [Example 2-5-1, 4-[(2-{5-cyclopropyl-4-methyl-1-[(5-methyl-1,3,4-oxadiazol-2-yl)methyl]-1H-pyrazol-3-yl}-5-methoxypyrimidin-4-yl)amino]pyridine-3-carboxamide], the IC50 is above 10 µM in assay [1] and 0.68 µM in assay [2]. With `CCOC(=O)c1cnccc1Nc1nc(-c2nn(Cc3nnc(C)o3)c(C3CC3)c2C)ncc1OC` [Example 2-4-2, ethyl 4-[(2-{5-cyclopropyl-4-methyl-1-[(5-methyl-1,3,4-oxadiazol-2-yl)methyl]-1H-pyrazol-3-yl}-5-methoxypyrimidin-4-yl)amino]pyridine-3-carboxylate], in assay [2], the IC50 was found to be 2.1 µM.
